According to ChEMBL document CHEMBL3217619, “Design and synthesis of trans-2-substituted-cyclopropane-1-carboxylic acids as the first non-natural small molecule inhibitors of O-acetylserine sulfhydrylase” (Medchemcomm, 2012):

Columns and labels:
[1] = Binding affinity to Haemophilus influenzae OASS-A expressed in Escherichia coli assessed as dissociation constant by fluorometric analysis
[2] = Inhibition of Haemophilus influenzae OASS-A expressed in Escherichia coli using OAS/TNB as substrate by spectrophotometric analysis
[3] = Competitive inhibition of Haemophilus influenzae OASS-A expressed in Escherichia coli using OAS/TNB as substrate by ping-pong analysis
[4] = Binding affinity to Haemophilus influenzae OASS-A expressed in Escherichia coli using OAS/TNB as substrate assessed as dissociation constant

Structure (SMILES) | Kd [1] [µM] | further results
CCOC(=O)[C@H]1C[C@@H]1C(=O)O (racemic) | 760 | 
CCOC(=O)[C@H]1C[C@H]1C(=O)O (racemic) | 4700 | 
CC(C)OC(=O)[C@H]1C[C@@H]1C(=O)O (racemic) | 513 | 
CC(C)COC(=O)[C@H]1C[C@@H]1C(=O)O (racemic) | 950 | 
CCOC[C@H]1C[C@@H]1C(=O)O (racemic) | 5.3 | 
CCCOC[C@H]1C[C@@H]1C(=O)O (racemic) | 6.5 | 
C/C=C/[C@H]1C[C@@H]1C(=O)O (racemic) | 1.46 | IC50 [2]: 700 µM; IC50 [3]: 600 µM; Kd [4]: 200 µM
CC/C=C/[C@H]1C[C@@H]1C(=O)O (racemic) | 21.5 | 
